Assay results as given in publication PMC13427755 (Nature Communications, 2026).
Where a SMILES comes first, the peptide text is derived from it.

What was measured:
[1] = system: thymic stromal lymphopoietin (TSLP); assay: TSLP ELISA in deep bronchial brushings (DBB); type: in vivo, human; settings: for TSLP in DBB, Δ from baseline, median (IQR): Day 14 minus screening
Excerpt: (§1) Bronchoscopists were instructed to obtain a total of 6 brushings from 3 of the basilar bronchial segments of the right lower lobe: the anterior basilar segment, the lateral basilar segment, and the posterior basilar segment. With the bronchoscope proximal to or within the orifice of the appropriate basilar segment, the brush sheath was to be passed out 5 cm beyond the subsegment orifice, and then the brush was fully extended an additional 1 cm for a total of 6 cm beyond the orifice of the subsegmental bronchus. At the desired depth, the sheath was to be gently pulled back and forward for 15 strokes to brush the small airways. The brushing process was repeated using any combination of the 3 basilar segments described above, at the discretion of the bronchoscopist, for a total of 6 six separate brush samples.
(§2) Protein isolation and preparation of DBB samples for ELISAs were performed as previously described[47] according to manufacturer’s instructions for COL1A1 (#ab210966, abcam), CXCL7 (#LS-F4967-1, LS Bio), GAL7 (#DY1339, R&D Systems), IL-11 (#DY218, R&D Systems), and TSLP (#DY1398, R&D Systems).
(§3) Descriptive statistics are reported as medians with interquartile ranges (IQR). The Hodges-Lehmann estimator was used for the median difference between groups (treatment minus placebo), with approximate 90% confidence intervals (asymmetric, exact level varied slightly with small n). Cliff’s delta was calculated as effect size using the formula δ = (2U / (n1 × n2)) − 1, with thresholds: |δ | <0.3 small effect, 0.3–0.5 medium effect, >0.5 large effect. […] No adjustment for multiplicity was performed, as these were pre-specified, hypothesis-driven exploratory analyses. All biomarker statistical analyses were conducted using GraphPad Prism Version v10.0.

participants with IPF = system: participants with IPF; set-up: species or system human; settings: in vivo
Experimental: Safety and tolerability assessments were performed through treatment and follow-up and included evaluation of TEAEs, concomitant medications, physical examinations, vital signs, 12-lead ECGs, clinical laboratory assessments, spirometry, and cough symptoms using the validated LCQ[22] and a cough VAS. Spirometry was performed according to American Thoracic Society (ATS) / European Respiratory Society (ERS) Task Force guidelines[46] at all clinic visits, with assessments conducted both pre-and post-dose on study drug dosing days. Study staff monitored participants’ self-administration of the study drug (the morning dose) during on-site visits, and symptoms were monitored for at least 1h. […]
Exploratory biomarkers will be assessed in peripheral blood cells (as feasible), platelet rich plasma, BALF, BA samples, and deep bronchial brushings as outlined in Table 3. […]
LCQ total score is equal to the sum of the domain scores (total score range from 3 to 21) with a lower score indicating greater impairment of health status due to cough . […] If a response is not provided to a question, the domain score will be calculated as the average of the scores to the answered questions within the domain. If a subject responds to less than 80% of questions in a domain, the LCQ domain score will not be calculated and will be treated as missing during analysis. […]

Sprague Dawley rats = settings: 28-day GLP inhalation study, delivered doses 18.4, 58.5 and 109.3 mg/kg/day, ref Investigator Brochure (IB); cited from earlier work
Experimental: (§4) Pivotal 28-day Good Laboratory Practice (GLP) toxicity studies were performed in rats and dogs. These studies were designed such that the high dose levels would achieve at least a 50-fold margin over the proposed high clinical dose as recommended in International Council for Harmonisation (ICH)-M3(R2) guidelines.

dog = settings: 28-day GLP study, delivered doses 8.9, 27.1 and 46.1 mg/kg/day, ref Investigator Brochure (IB); cited from earlier work
Experimental: as §4

[2] = system: phosphorylated (p) AKT over total AKT; assay: AKT/pAKT in PBMCs, MSD-ECL assay; type: in vivo, human
Experimental: Blood samples for biomarker assessments in PBMCs and platelet-rich plasma were collected prior to the initial dose and on day 14 following the last dose. Following optimization for detection of analytes in IPF matrices, meso-scale discovery electrochemiluminescence (MSD-ECL) assays were performed at BioAgylitix for SP-D (#K1519XR-2, MSD) in plasma and AKT/pAKT (#K15100D-1, MSD) in PBMCs according to manufacturer’s instructions.
as §3

[3] = system: collagen type 1 alpha chain 1 (COL1A1); assay: COL1A1 ELISA in deep bronchial brushings (DBB); type: in vivo, human; settings: for COL1A1 in DBB, Δ from baseline, median (IQR): Day 14 minus screening
Excerpt: as §1, §2, §3

In the case of `CC(C)[C@H](NC(=O)[C@@H](NC(=O)[C@H](Cc1ccccc1)NC(=O)[C@@H](NC(=O)[C@@H](NC(=O)[C@@H](N)Cc1ccccc1)[C@@H](C)O)[C@@H](C)O)[C@@H](C)O)C(=O)N[C@H](C(=O)O)[C@@H](C)O` [LTI-03] (H-FTTFTVT-OH; N-terminus and C-terminus assumed), the “TSLP in DBB, Δ from baseline, median (IQR)” value ([1]; 5 mg/day, N = 7) is reported as −2.106 pg/mg protein, the “TSLP in DBB, median difference vs placebo (Hodges-Lehmann)” value ([1]; 5 mg/day, N = 7 vs pooled placebo N = 6, one-tailed Mann-Whitney p = 0.0256) is reported as −19.66 pg/mg protein and the “TSLP in DBB, Δ from baseline, median (IQR)” value ([1]; 10 mg/day, N = 9) is reported as −2.09 pg/mg protein. The “TSLP in DBB, median difference vs placebo (Hodges-Lehmann)” value ([1]; 10 mg/day, N = 9 vs pooled placebo N = 6, one-tailed Mann-Whitney p = 0.0128) was −19.07 pg/mg protein, the “change in LCQ total score during the treatment period” value (participants with IPF) was “No clinically significant changes” and the “change in cough VAS during the treatment period” value (participants with IPF) was “No clinically significant changes”. The “no observed adverse effect level (NOAEL), achieved delivered dose” value (Sprague Dawley rats) was 109.3 mg/kg/day, the “no observed adverse effect level (NOAEL), achieved delivered dose” value (dog) was 46.1 mg/kg/day and the “%p-AKT in PBMCs, Cliff's delta vs placebo” value ([2]; 5 mg/day) was −0.33. The “%p-AKT in PBMCs, Cliff's delta vs placebo” value ([2]; 10 mg/day) was −0.13, the “phosphorylated (p) AKT over total AKT levels in PBMCs” value ([2]; 5 and 10 mg/day vs placebo, 14 days) was “did not change” and the “COL1A1 in DBB, Δ from baseline, median (IQR)” value ([3]; 5 mg/day, N = 8) was 0.16 pg/mg protein. For the same compound, the “COL1A1 in DBB, median difference vs placebo (Hodges-Lehmann)” value ([3]; 5 mg/day, N = 8 vs pooled placebo N = 6, one-tailed Mann-Whitney p = 0.0709) was −3.486 pg/mg protein, the “COL1A1 in DBB, Δ from baseline, median (IQR)” value ([3]; 10 mg/day, N = 9) was −11.9 pg/mg protein and the “COL1A1 in DBB, median difference vs placebo (Hodges-Lehmann)” value ([3]; 10 mg/day, N = 9 vs pooled placebo N = 6, one-tailed Mann-Whitney p = 0.0248) was −20.95 pg/mg protein.
